Measurements as given in ChEMBL document CHEMBL5244281, “Tackling multidrug-resistant Staphylococcus aureus by natural products and their analogues acting as NorA efflux pump inhibitors” (Bioorg Med Chem, 2023).
In brackets after ≈: the same amount, converted by molar mass.

Experiments:
Staphylococcus aureus [1] = assay: Antibacterial activity against norfloxacin resistant Staphylococcus aureus 1199B harboring NorA efflux pump assessed as bacterial growth inhibition incubated for 24 hrs by broth microdilution method; type: functional
[2] = target: T1, Quinolone resistance protein NorA (Staphylococcus aureus) (UniProt P0A0J7); conditions: 1199B
T1 sequence (whole entry): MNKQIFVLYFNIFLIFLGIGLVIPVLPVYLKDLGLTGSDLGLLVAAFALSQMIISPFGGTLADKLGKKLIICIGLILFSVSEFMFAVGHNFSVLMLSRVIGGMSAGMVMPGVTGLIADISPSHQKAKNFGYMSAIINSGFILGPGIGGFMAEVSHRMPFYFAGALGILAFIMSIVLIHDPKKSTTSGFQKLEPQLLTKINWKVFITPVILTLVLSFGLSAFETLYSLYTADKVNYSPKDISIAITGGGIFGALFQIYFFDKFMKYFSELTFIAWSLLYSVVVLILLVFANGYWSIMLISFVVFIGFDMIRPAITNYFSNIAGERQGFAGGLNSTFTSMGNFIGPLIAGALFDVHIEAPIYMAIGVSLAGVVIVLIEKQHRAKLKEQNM

Staphylococcus aureus [3] = assay: Potentiation of tetracycline-induced inhibition of TetK efflux pump in Staphylococcus aureus IS-58 overexpressing TetK efflux pump assessed as reduction in tetracycline MIC at 1/8 times of MIC incubated for 24 hrs by resazurin based assay (Rvb=192 ug/ml)
Staphylococcus aureus [4] = assay: Antibacterial activity against Staphylococcus aureus IS-58 harboring TetK efflux pump protein assessed as bacterial growth inhibition incubated for 24 hrs by broth microdilution method; type: functional
Staphylococcus aureus [5] = assay: Synergistic antibacterial activity against Staphylococcus aureus 1199B overexpressing NorA efflux pump assessed as fractional inhibitory concentration index in presence of norfloxacin by chequer board assay; type: functional
Staphylococcus aureus [6] = assay: Antibacterial activity against methicillin-resistant Staphylococcus aureus RN4220/pUL5054 overexpressing MsrA efflux pump assessed as bacterial growth inhibition incubated for 24 hrs by resazurin based broth dilution method; type: functional
Staphylococcus aureus [7] = conditions: IS-58, time 24.0 hrs
Staphylococcus aureus [8] = assay: Antibacterial activity against methicillin-resistant Staphylococcus aureus 1199B overexpressing NorA efflux pump assessed as bacterial growth inhibition incubated for 24 hrs by resazurin based broth dilution method; type: functional
Staphylococcus aureus [9] = assay: Antibacterial activity against Staphylococcus aureus IS-58 overexpressing TetK pump assessed as bacterial growth inhibition incubated for 24 hrs by resazurin based broth dilution method; type: functional
Staphylococcus aureus [10] = assay: Antibacterial activity against methicillin-resistant Staphylococcus aureus 1199 assessed as bacterial growth inhibition incubated for 24 hrs by resazurin based broth dilution method; type: functional
[11] = target: T1, Quinolone resistance protein NorA (Staphylococcus aureus); conditions: 1199B, time 24.0 hrs
Staphylococcus aureus [12] = conditions: IS-58, time 24.0 hrs; remark: listed apart in the source
[13] = target: T1, Quinolone resistance protein NorA (Staphylococcus aureus); conditions: 1199B, time 24.0 hrs; remark: listed apart in the source
Staphylococcus aureus [14] = assay: Potentiation of erythromycin-induced inhibition of MsrA pump in Staphylococcus aureus RN4220/pUL5054 assessed as reduction in erythromycin MIC incubated for 24 hrs by Resazurin based assay (RVB= 645.08 ug/ml)
Bacillus subtilis = assay: Antimicrobial activity against Bacillus subtilis assessed as bacterial growth inhibition incubated for 18 to 24 hrs by broth microdilution method; type: functional; conditions: time 18-24 hrs
Staphylococcus aureus [15] = assay: Antimicrobial activity against Staphylococcus aureus assessed as bacterial growth inhibition incubated for 18 to 24 hrs by broth microdilution method; type: functional; conditions: time 18-24 hrs
Escherichia coli = assay: Antimicrobial activity against Escherichia coli assessed as bacterial growth inhibition incubated for 18 to 24 hrs by broth microdilution method; type: functional; conditions: time 18-24 hrs
Klebsiella pneumoniae = assay: Antimicrobial activity against Klebsiella pneumoniae assessed as bacterial growth inhibition incubated for 18 to 24 hrs by broth microdilution method; type: functional; conditions: time 18-24 hrs
Proteus vulgaris = assay: Antimicrobial activity against Proteus vulgaris assessed as bacterial growth inhibition incubated for 18 to 24 hrs by broth microdilution method; type: functional; conditions: time 18-24 hrs
Enterococcus faecalis = assay: Antimicrobial activity against Enterococcus faecalis assessed as bacterial growth inhibition incubated for 18 to 24 hrs by broth microdilution method; type: functional; conditions: time 18-24 hrs
Proteus mirabilis = assay: Antimicrobial activity against Proteus mirabilis assessed as bacterial growth inhibition incubated for 18 to 24 hrs by broth microdilution method; type: functional; conditions: time 18-24 hrs
Shigella dysenteriae = assay: Antimicrobial activity against Shigella dysenteriae assessed as bacterial growth inhibition incubated for 18 to 24 hrs by broth microdilution method; type: functional; conditions: time 18-24 hrs
Pseudomonas aeruginosa = assay: Antimicrobial activity against Pseudomonas aeruginosa assessed as bacterial growth inhibition incubated for 18 to 24 hrs by broth microdilution method; type: functional; conditions: time 18-24 hrs
Vibrio cholerae = assay: Antimicrobial activity against Vibrio cholerae assessed as bacterial growth inhibition incubated for 18 to 24 hrs by broth microdilution method; type: functional; conditions: time 18-24 hrs
Staphylococcus aureus [16] = assay: Antibacterial activity against norfloxacin resistant Staphylococcus aureus 1199B harboring NorA efflux pump assessed as bacterial growth inhibition incubated for 24 hrs by CLSI protocol based broth microdilution method; type: functional
[17] = target: T1, Quinolone resistance protein NorA (Staphylococcus aureus); assay: Modulation of norfloxacin-induced inhibition of NorA efflux pump in Staphylococcus aureus 1199B overexpressing NorA efflux pump assessed as reduction in norfloxacin MIC at 1/4 times of MIC by resazurin based assay
[18] = system: Mycolicibacterium smegmatis; assay: Antibacterial activity against Mycobacterium smegmatis ATCC 607 assessed as bacterial growth inhibition incubated for 3 days by CLSI protocol based microbroth dilution method; type: functional; conditions: ATCC 607, 72 h, time 3 day
Staphylococcus aureus [19] = assay: Antibacterial activity against Staphylococcus aureus NCTC 8325-4 assessed as bacterial growth inhibition incubated for 18 hrs by broth microdilution method; type: functional
Staphylococcus aureus [20] = assay: Antibacterial activity against methicillin-resistant Staphylococcus aureus 1199B overexpressing NorA efflux pump assessed as bacterial growth inhibition incubated for 18 hrs by broth microdilution method; type: functional
Staphylococcus aureus [21] = assay: Antibacterial activity against Staphylococcus aureus ST239 assessed as bacterial growth inhibition incubated for 18 hrs by broth microdilution method; type: functional
Staphylococcus aureus [22] = assay: Antibacterial activity against fusidic acid-resistant Staphylococcus aureus APH4' assessed as bacterial growth inhibition incubated for 18 hrs by broth microdilution method; type: functional
Staphylococcus aureus [23] = assay: Antibacterial activity against gentamicin-resistant Staphylococcus aureus APH2" AAC6 assessed as bacterial growth inhibition incubated for 18 hrs by broth microdilution method; type: functional
Staphylococcus aureus [24] = assay: Antibacterial activity against kanamycin-resistant Staphylococcus aureus APH3' assessed as bacterial growth inhibition incubated for 18 hrs by broth microdilution method; type: functional
Staphylococcus aureus [25] = assay: Antibacterial activity against methicillin-resistant Staphylococcus aureus RN4220/pUL5054 overexpressing MsrA efflux pump assessed as bacterial growth inhibition incubated for 18 hrs by broth microdilution method; type: functional

Q: How did the MIC (Staphylococcus aureus [1]) turn out when CC1=CC[C@@H]([C@@](C)(O)CCCC(C)C)CC1 was run?
A: ≥ 1020 mg/L

Q: And the MIC [2]?
A: 32 mg/L (≈ 143 µM)

Q: What about the MIC (Staphylococcus aureus [3]) of the same compound?
A: 128 mg/L

Q: And the MIC (Staphylococcus aureus [4])?
A: ≥ 1020 mg/L

Q: For C=C(C)[C@H](CC=C(C)C)Cc1c(O)cc(O)c2c1O[C@H](c1ccc(O)cc1O)CC2=O [SOPHORAFLAVANONE G], which “fractional inhibitory concentration index (FICI)” value (Staphylococcus aureus [5]) is on record?
A: 0.188

Q: O=c1c(O)c(-c2ccc(O)c(O)c2)oc2cc(O)cc(O)c12 [QUERCETIN] was tested. Which MIC (Staphylococcus aureus [6]) did it give?
A: ≥ 1020 mg/L

Q: And the MIC (Staphylococcus aureus [7])?
A: 12.7 mg/L (≈ 42 µM)

Q: What about the MIC (Staphylococcus aureus [8]) of the same compound?
A: ≥ 1020 mg/L

Q: And the MIC (Staphylococcus aureus [9])?
A: 512 mg/L (≈ 1690 µM)

Q: What about the MIC (Staphylococcus aureus [10]) of the same compound?
A: ≥ 1020 mg/L

Q: What about the MIC [11] of the same compound?
A: 128 mg/L (≈ 424 µM)

Q: And the MIC (Staphylococcus aureus [12])?
A: 128 mg/L (≈ 424 µM)

Q: What about the MIC [13] of the same compound?
A: 12.7 mg/L (≈ 42 µM)

Q: And the MIC (Staphylococcus aureus [14])?
A: 512 mg/L

Q: Which MIC (Bacillus subtilis) does the source give for COc1cc(O)c2c(c1)O[C@H](c1ccccc1)CC2=O [PINOSTROBIN] here?
A: 12 mg/L (≈ 44.4 µM)

Q: What about the MIC (Staphylococcus aureus [15]) of the same compound?
A: 64 mg/L (≈ 237 µM)

Q: And the MIC (Escherichia coli)?
A: 12 mg/L (≈ 44.4 µM)

Q: And the MIC (Klebsiella pneumoniae)?
A: 18 mg/L (≈ 66.6 µM)

Q: And the MIC (Proteus vulgaris)?
A: 18 mg/L (≈ 66.6 µM)

Q: What about the MIC (Enterococcus faecalis) of the same compound?
A: 12 mg/L (≈ 44.4 µM)

Q: What about the MIC (Proteus mirabilis) of the same compound?
A: 32 mg/L (≈ 118 µM)

Q: And the MIC (Shigella dysenteriae)?
A: 12 mg/L (≈ 44.4 µM)

Q: What about the MIC (Pseudomonas aeruginosa) of the same compound?
A: 32 mg/L (≈ 118 µM)

Q: What about the MIC (Vibrio cholerae) of the same compound?
A: 24 mg/L (≈ 88.8 µM)

Q: What does the source list for O=c1c(O)c(-c2cc(O)c(O)c(O)c2)oc2cc(O)cc(O)c12 [MYRICETIN]?
A: MIC (Staphylococcus aureus [16]): 256 mg/L (≈ 804 µM); MIC [17]: 256 mg/L

Q: For COc1c(O)c(OC)c2oc(-c3ccc(O)cc3)c(OC)c(=O)c2c1O, which MIC [18] is on record?
A: 75 mg/L (≈ 208 µM)

Q: What about the MIC (Staphylococcus aureus [19]) of the same compound?
A: > 800 mg/L

Q: For O=c1cc(-c2ccccc2)oc2cc(O)c(O)c(O)c12 [BAICALEIN], which MIC (Staphylococcus aureus [20]) is on record?
A: 128 mg/L (≈ 474 µM)

Q: And the MIC (Staphylococcus aureus [21])?
A: 128 mg/L (≈ 474 µM)

Q: What about the MIC (Staphylococcus aureus [22]) of the same compound?
A: 128 mg/L (≈ 474 µM)

Q: What about the MIC (Staphylococcus aureus [23]) of the same compound?
A: 128 mg/L (≈ 474 µM)

Q: And the MIC (Staphylococcus aureus [24])?
A: 64 mg/L (≈ 237 µM)

Q: What about the MIC (Staphylococcus aureus [25]) of the same compound?
A: 64 mg/L (≈ 237 µM)
